ChEMBL document CHEMBL1201862, “PubChem BioAssay data set” (2004)
Active and inactive are the calls of the source.

Assays:
[1] = microbe, parasite or virus in culture; assay type: functional; settings: Mycobacterium tuberculosis
Bcl-2-related protein A1 = molecular target: T1, Bcl-2-related protein A1 (Mus musculus, UniProt Q07440); assay type: functional;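 also: confirmatory dose–response counterscreen on Bfl-1, used to check hits from a UBC13 polyubiquitin inhibitor campaign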
T1 sequence (Q07440 whole entry): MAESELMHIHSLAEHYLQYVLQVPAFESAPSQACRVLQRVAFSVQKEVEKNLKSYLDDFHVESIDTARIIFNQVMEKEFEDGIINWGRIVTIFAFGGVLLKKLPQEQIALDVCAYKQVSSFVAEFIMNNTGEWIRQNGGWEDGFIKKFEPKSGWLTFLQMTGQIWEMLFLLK

[2] = molecular target: T2, Ubiquitin-conjugating enzyme E2 N (Homo sapiens, UniProt P61088); assay type: functional
T2 sequence (P61088 whole entry): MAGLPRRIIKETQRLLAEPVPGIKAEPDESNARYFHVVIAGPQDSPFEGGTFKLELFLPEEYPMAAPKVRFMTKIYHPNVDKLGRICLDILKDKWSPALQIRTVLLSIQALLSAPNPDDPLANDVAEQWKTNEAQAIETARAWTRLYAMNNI

[3] = molecular target: T2, Ubiquitin-conjugating enzyme E2 N; assay type: functional; remark: listed apart in the source
[4] = molecular target: T3, Apoptotic protease-activating factor 1 (Homo sapiens, UniProt O14727); assay type: functional
T3 sequence (O14727 whole entry): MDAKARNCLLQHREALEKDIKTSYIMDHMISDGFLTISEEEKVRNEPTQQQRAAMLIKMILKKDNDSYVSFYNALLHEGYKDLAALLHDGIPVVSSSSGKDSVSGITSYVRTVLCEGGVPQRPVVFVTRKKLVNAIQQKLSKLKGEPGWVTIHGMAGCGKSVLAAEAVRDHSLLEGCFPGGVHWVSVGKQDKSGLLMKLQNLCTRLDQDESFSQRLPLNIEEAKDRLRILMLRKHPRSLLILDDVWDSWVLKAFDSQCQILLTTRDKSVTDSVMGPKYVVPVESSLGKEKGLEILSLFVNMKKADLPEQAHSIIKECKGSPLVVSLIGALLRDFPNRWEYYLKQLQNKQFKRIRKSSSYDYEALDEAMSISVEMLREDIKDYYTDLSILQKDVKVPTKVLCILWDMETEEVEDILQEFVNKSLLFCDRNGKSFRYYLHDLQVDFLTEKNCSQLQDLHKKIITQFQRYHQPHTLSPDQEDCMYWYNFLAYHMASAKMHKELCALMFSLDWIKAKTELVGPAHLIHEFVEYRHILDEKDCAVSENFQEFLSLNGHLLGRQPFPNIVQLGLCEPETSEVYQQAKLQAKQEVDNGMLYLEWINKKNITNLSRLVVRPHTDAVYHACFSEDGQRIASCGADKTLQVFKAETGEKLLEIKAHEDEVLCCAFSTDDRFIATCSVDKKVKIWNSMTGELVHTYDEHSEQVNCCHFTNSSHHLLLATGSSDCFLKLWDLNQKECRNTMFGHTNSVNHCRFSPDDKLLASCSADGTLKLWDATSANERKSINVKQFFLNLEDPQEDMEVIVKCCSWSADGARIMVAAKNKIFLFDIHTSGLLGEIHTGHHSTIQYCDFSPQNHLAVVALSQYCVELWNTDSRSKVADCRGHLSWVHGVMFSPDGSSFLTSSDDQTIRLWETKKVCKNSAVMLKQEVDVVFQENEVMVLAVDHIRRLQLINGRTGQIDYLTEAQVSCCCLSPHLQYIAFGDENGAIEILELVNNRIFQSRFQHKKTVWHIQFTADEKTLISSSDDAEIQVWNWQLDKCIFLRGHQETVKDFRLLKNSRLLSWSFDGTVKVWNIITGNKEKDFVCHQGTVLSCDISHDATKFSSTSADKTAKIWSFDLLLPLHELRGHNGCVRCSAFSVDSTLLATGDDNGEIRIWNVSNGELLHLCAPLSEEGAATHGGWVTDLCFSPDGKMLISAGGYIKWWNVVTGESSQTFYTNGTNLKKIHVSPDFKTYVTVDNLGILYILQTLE

INS1 = assay: beta cell apoptosis inhibitors, cytokine rescue, dose response, luminescence, retest (AID 449756); assay type: functional, cell-based; settings: Rattus norvegicus;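 also: cell death triggered by IL-1 beta plus TNF-alpha plus IFN-gamma mixture; protective hits raise ATP signal compared with cytokine alone wells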
[5] = molecular target: T3, Apoptotic protease-activating factor 1; assay: SAR analysis of small molecule inhibitors of Apaf-1 in a Fluorescent assay.; assay type: functional; settings: read-out: IC50_Mean
[6] = molecular target: 26S proteasome non-ATPase regulatory subunit 14 (Homo sapiens, UniProt O00487); assay: inhibition of proteasome subunit RPN11 – biochemical, fluorescence polarization, uHTS hits, confirmation (AID 602368); assay type: functional
[7] = molecular target: 72 kDa type IV collagenase (Homo sapiens, UniProt P08253); assay: Dose Response validation of uHTS RPN11 inhibitor hits using a MMP-2 Fluorescence assay.; assay type: functional
Prothrombin = Prothrombin (Bos taurus, UniProt P00735); assay: thrombin inhibition, dose response, biochemical, fluorescence polarization, uHTS hits (AID 602369); assay type: functional
[8] = molecular target: T4, Small ubiquitin-related modifier 1 (Homo sapiens, UniProt P63165); assay: inhibitors of SUMO1 peptide binding, dose response, biochemical, fluorescence polarization, uHTS hits (AID 624382); assay type: functional; settings: read-out: IC50_Mean
[9] = molecular target: T4, Small ubiquitin-related modifier 1; assay: inhibitors of SUMO1 partner interactions, dose response, biochemical, FRET (AID 624383); assay type: functional; settings: read-out: IC50_Mean
[10] = molecular target: T5, Rac GTPase-activating protein 1 (Homo sapiens, UniProt Q9H0H5); assay: MgcRacGAP GTPase-activating activity inhibitors, confirmation, biochemical, ADP Hunter fluorescence, primary and confirmatory (AID 624330); assay type: functional
T5 sequence (Q9H0H5 whole entry): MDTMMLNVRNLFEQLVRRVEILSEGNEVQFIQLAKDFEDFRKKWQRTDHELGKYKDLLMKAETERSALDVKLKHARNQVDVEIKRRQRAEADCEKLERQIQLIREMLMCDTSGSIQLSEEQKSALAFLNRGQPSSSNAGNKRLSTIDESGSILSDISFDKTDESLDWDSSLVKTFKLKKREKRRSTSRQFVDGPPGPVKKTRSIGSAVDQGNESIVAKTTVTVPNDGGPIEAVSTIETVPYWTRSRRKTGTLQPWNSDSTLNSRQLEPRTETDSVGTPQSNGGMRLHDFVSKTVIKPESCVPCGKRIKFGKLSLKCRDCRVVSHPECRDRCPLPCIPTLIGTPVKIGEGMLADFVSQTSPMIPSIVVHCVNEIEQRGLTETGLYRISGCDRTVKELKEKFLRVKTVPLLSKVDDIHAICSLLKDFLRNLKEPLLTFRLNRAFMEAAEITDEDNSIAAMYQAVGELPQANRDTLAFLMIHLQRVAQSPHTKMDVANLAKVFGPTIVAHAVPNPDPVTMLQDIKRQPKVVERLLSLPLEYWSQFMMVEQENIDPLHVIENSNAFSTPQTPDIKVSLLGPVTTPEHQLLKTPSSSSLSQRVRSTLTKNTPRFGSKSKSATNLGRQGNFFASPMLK

[11] = molecular target: T6, Botulinum neurotoxin type A (Clostridium botulinum (strain Hall / ATCC 3502 / NCTC 13319 / Type A), UniProt P0DPI1); assay: High-throughput multiplex microsphere dose response for inhibitors of toxin protease, specifically Botulinum neurotoxin light chain A protease, compounds from Cherry Pick 02.; assay type: functional; settings: read-out: EC50_MICROM
Lethal factor = Lethal factor (Bacillus anthracis, UniProt P15917); assay: High-throughput multiplex microsphere dose response for inhibitors of toxin protease, specifically Lethal Factor protease, compounds from Cherry Pick 02.; assay type: functional; settings: read-out: EC50_MICROM
[12] = molecular target: Botulinum neurotoxin type F (Clostridium botulinum, UniProt P30996); assay: High-throughput multiplex microsphere dose response for inhibitors of toxin protease, specifically Botulinum neurotoxin light chain F protease, compounds from Cherry Pick 02.; assay type: functional; settings: read-out: EC50_MICROM
[13] = molecular target: T6, Botulinum neurotoxin type A; assay: High-throughput multiplex microsphere dose response for inhibitors of toxin protease, specifically Botulinum neurotoxin light chain A protease, compounds from Cherry Pick 01.; assay type: functional; settings: read-out: EC50_MICROM
[14] = molecular target: Protein kinase C theta type (Homo sapiens, UniProt Q04759); assay: Navigating the Kinome. Panel member name: PRKCQ; assay type: functional
[15] = molecular target: Proto-oncogene tyrosine-protein kinase receptor Ret (Homo sapiens, UniProt P07949); assay type: functional;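 also: measured within a kinome-wide profiling panel, RET as the panel member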
[16] = molecular target: Tyrosine-protein kinase receptor TYRO3 (Homo sapiens, UniProt Q06418); assay type: functional;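 also: TYRO3 value obtained as one member of a kinome-wide profiling panel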
[17] = molecular target: Serine/threonine-protein kinase D3 (Homo sapiens, UniProt O94806); assay type: functional;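 also: determined within a kinase panel screen, with PRKCN as the panel member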
[18] = molecular target: Death-associated protein kinase 3 (Homo sapiens, UniProt O43293); assay type: functional;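 also: measured as one member of a kinome-wide profiling panel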
Aurora kinase A = Aurora kinase A (Homo sapiens, UniProt O14965); assay type: functional;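 also: value from the Navigating the Kinome kinase panel profiling, panel entry STK6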
[19] = molecular target: Casein kinase I isoform alpha (Homo sapiens, UniProt P48729); assay type: functional
LIM domain kinase 1 = LIM domain kinase 1 (Homo sapiens, UniProt P53667); assay: Navigating the Kinome. Panel member name: LIMK1; assay type: functional
[20] = molecular target: Mitogen-activated protein kinase kinase kinase kinase 2 (Homo sapiens, UniProt Q12851); assay type: functional;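 also: measured as one member of a kinome-wide kinase panel, with MAP4K2 as the panel entry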
[21] = molecular target: Hepatocyte growth factor receptor (Homo sapiens, UniProt P08581); assay type: functional;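 also: kinase panel profiling across the kinome, with MET as the panel member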
[22] = molecular target: Platelet-derived growth factor receptor beta (Homo sapiens, UniProt P09619); assay type: functional;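 also: value comes from a kinome panel, with PDGFRB tested as one panel member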
[23] = molecular target: Serine/threonine-protein kinase Chk1 (Homo sapiens, UniProt O14757); assay type: functional;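 also: measured as one member of a kinome-wide kinase profiling panel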
[24] = molecular target: Tyrosine-protein kinase ABL1 (Homo sapiens, UniProt P00519); assay type: functional
[25] = molecular target: Vascular endothelial growth factor receptor 2 (Homo sapiens, UniProt P35968); assay type: functional
[26] = molecular target: G protein-coupled receptor kinase 5 (Homo sapiens, UniProt P34947); assay: Navigating the Kinome. Panel member name: GPRK5; assay type: functional
[27] = molecular target: Cyclin-dependent kinase 5 (Homo sapiens, UniProt Q00535); assay type: functional;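 also: CDK5 measured as one member of a kinase profiling panel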
[28] = molecular target: Dual specificity tyrosine-phosphorylation-regulated kinase 1B (Homo sapiens, UniProt Q9Y463); assay: Navigating the Kinome. Panel member name: DYRK1B; assay type: functional
[29] = molecular target: cAMP-dependent protein kinase catalytic subunit PRKX (Homo sapiens, UniProt P51817); assay type: functional
Focal adhesion kinase 1 = Focal adhesion kinase 1 (Homo sapiens, UniProt Q05397); assay type: functional;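 also: measured as one member of a kinome panel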
[30] = molecular target: Leucine-rich repeat serine/threonine-protein kinase 2 (Homo sapiens, UniProt Q5S007); assay type: functional;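 also: value from a broad kinome-wide panel profiling study in which LRRK2 was one of the kinases tested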
Aurora kinase B = Aurora kinase B (Homo sapiens, UniProt Q96GD4); assay type: functional
[31] = molecular target: Serine/threonine-protein kinase Nek2 (Homo sapiens, UniProt P51955); assay type: functional
[32] = molecular target: Cyclin-dependent kinase 8 (Homo sapiens, UniProt P49336); assay: Navigating the Kinome. Panel member name: CDK8; assay type: functional
[33] = molecular target: Cyclin-dependent kinase 7 (Homo sapiens, UniProt P50613); assay type: functional;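 also: value comes from a kinome-wide kinase profiling panel in which CDK7 is one member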
[34] = molecular target: cAMP-dependent protein kinase catalytic subunit alpha (Homo sapiens, UniProt P17612); assay type: functional
[35] = molecular target: Dual specificity protein kinase CLK4 (Homo sapiens, UniProt Q9HAZ1); assay type: functional
[36] = molecular target: Macrophage colony-stimulating factor 1 receptor (Homo sapiens, UniProt P07333); assay type: functional;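 also: value comes from the Navigating the Kinome screening panel, CSF1R member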
[37] = molecular target: Dual specificity tyrosine-phosphorylation-regulated kinase 1A (Homo sapiens, UniProt Q13627); assay type: functional;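 also: measured against DYRK1A as one member of a broad kinome profiling panel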
[38] = molecular target: Inhibitor of nuclear factor kappa-B kinase subunit epsilon (Homo sapiens, UniProt Q14164); assay: Navigating the Kinome. Panel member name: IKBKE; assay type: functional
[39] = molecular target: Calcium/calmodulin-dependent protein kinase type II subunit alpha (Homo sapiens, UniProt Q9UQM7); assay: Navigating the Kinome. Panel member name: CAMK2A; assay type: functional
[40] = molecular target: Leukocyte tyrosine kinase receptor (Homo sapiens, UniProt P29376); assay: Navigating the Kinome. Panel member name: LTK; assay type: functional

T6 sequence (P0DPI1 2-448 limits assumed): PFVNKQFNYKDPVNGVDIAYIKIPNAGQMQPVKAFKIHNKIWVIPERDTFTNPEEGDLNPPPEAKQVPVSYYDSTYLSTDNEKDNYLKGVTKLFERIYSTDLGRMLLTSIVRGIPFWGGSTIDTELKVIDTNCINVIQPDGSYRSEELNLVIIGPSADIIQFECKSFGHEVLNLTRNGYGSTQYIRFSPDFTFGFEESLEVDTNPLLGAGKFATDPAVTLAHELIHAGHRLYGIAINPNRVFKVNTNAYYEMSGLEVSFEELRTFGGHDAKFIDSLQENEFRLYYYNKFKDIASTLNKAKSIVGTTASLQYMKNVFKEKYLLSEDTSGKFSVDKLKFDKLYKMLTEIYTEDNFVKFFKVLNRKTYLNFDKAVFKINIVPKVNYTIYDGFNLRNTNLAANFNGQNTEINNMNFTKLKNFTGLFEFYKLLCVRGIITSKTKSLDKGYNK
T4 sequence (P63165 whole entry): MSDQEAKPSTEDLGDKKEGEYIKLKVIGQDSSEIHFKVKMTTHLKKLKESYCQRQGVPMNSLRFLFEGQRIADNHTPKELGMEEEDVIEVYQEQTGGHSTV
Chain of 72 kDa type IV collagenase (P08253 whole entry): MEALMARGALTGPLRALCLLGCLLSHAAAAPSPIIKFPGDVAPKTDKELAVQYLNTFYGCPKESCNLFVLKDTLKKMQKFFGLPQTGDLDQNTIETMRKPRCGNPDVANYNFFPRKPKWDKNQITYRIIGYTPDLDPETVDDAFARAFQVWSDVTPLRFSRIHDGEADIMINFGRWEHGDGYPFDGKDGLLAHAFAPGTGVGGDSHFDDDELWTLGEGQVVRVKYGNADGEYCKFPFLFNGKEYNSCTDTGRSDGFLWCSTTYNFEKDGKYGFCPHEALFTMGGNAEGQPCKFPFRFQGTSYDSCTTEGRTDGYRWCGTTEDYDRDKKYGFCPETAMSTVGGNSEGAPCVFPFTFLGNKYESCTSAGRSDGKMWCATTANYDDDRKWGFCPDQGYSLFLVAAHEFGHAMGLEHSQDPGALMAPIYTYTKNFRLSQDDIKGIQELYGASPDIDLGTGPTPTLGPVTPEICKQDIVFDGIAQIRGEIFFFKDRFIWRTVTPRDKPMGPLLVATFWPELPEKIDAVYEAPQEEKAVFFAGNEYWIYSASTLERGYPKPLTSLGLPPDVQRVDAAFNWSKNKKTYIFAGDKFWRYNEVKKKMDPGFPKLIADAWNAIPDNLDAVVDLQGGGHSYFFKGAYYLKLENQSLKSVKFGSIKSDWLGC
Chain of Cyclin-dependent kinase 8 (P49336 whole entry): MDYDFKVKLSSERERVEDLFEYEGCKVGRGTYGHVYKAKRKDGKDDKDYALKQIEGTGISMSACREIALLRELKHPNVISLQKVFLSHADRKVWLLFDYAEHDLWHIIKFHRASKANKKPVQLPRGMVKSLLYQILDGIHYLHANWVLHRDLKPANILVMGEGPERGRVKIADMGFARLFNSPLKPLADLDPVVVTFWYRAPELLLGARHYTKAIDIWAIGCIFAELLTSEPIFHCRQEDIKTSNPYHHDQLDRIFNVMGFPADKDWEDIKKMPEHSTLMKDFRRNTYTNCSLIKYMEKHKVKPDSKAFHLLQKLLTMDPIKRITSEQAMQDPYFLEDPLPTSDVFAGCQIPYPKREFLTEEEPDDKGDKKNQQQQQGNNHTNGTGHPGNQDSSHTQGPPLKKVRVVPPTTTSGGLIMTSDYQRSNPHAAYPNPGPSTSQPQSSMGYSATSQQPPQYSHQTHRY
Chain of Tyrosine-protein kinase receptor TYRO3 (Q06418 whole entry): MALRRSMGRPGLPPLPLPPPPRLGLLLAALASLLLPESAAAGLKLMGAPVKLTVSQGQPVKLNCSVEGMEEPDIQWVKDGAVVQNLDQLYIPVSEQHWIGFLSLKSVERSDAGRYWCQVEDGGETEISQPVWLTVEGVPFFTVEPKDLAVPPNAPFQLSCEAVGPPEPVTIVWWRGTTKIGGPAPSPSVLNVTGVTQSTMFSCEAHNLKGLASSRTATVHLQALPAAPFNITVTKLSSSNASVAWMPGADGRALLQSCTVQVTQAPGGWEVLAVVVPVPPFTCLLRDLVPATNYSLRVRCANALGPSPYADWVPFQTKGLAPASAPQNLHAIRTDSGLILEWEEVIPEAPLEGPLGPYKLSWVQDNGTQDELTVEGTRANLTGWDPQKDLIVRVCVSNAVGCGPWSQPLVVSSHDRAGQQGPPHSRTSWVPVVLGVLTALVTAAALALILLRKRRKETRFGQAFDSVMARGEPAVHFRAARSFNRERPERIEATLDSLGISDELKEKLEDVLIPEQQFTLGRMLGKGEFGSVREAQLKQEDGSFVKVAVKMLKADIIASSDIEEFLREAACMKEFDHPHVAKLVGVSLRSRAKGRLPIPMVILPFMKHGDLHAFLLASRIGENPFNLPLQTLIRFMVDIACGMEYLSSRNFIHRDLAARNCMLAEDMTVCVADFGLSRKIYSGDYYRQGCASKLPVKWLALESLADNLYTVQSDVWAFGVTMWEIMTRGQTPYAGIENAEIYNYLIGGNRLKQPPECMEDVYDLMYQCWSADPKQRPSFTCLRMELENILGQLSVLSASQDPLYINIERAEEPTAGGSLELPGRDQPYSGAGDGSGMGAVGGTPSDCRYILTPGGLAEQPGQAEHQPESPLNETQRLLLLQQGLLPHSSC
Chain of Platelet-derived growth factor receptor beta (P09619 whole entry): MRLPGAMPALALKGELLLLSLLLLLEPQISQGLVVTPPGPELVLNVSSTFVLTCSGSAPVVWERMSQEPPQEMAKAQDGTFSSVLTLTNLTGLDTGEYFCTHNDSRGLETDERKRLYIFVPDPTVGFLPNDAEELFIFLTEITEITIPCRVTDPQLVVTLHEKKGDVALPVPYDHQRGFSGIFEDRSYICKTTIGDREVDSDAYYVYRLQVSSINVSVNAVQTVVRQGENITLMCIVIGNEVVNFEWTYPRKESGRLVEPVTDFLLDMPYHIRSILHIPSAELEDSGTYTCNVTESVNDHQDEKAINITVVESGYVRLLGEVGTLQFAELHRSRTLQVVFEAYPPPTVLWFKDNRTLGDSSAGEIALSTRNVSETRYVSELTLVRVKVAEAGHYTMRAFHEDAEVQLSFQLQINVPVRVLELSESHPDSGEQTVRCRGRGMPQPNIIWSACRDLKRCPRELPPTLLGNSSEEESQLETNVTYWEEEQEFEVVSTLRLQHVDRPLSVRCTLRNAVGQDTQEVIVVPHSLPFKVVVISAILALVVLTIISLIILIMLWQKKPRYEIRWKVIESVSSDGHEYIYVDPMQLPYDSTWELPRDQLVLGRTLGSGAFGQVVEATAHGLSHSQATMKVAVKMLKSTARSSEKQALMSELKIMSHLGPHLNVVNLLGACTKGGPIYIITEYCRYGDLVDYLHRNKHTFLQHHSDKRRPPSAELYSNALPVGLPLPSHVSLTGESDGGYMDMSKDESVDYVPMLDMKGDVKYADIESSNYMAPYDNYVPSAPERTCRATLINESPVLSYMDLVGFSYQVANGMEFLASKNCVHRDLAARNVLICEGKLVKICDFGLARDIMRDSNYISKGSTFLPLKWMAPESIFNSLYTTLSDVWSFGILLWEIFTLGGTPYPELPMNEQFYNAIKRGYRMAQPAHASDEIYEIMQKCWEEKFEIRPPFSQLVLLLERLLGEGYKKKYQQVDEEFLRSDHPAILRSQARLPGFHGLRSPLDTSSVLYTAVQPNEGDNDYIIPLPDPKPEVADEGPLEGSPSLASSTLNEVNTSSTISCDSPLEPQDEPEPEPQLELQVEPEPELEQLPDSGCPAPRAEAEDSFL
Chain of Death-associated protein kinase 3 (O43293 whole entry): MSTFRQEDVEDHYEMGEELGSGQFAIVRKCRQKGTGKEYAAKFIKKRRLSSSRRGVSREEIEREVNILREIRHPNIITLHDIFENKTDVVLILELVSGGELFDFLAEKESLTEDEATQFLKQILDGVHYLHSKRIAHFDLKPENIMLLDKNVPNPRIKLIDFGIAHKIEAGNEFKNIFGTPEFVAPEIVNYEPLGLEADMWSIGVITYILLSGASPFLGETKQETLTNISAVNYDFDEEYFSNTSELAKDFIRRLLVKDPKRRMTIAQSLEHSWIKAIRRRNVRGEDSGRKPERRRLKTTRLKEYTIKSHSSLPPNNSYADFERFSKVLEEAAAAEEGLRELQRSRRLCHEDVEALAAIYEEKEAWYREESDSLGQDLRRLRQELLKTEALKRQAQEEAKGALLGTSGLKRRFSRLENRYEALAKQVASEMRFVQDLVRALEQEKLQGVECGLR
Chain of Aurora kinase B (Q96GD4 whole entry): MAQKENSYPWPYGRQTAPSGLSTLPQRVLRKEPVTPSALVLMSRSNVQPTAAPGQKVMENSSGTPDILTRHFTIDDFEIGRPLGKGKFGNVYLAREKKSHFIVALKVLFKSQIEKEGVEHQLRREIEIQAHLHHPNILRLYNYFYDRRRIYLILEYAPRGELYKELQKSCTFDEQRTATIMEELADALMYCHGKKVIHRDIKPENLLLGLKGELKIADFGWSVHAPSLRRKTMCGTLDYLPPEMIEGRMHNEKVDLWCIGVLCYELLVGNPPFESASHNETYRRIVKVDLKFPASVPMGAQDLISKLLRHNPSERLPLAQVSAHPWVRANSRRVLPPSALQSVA
Chain of Serine/threonine-protein kinase Chk1 (O14757 whole entry): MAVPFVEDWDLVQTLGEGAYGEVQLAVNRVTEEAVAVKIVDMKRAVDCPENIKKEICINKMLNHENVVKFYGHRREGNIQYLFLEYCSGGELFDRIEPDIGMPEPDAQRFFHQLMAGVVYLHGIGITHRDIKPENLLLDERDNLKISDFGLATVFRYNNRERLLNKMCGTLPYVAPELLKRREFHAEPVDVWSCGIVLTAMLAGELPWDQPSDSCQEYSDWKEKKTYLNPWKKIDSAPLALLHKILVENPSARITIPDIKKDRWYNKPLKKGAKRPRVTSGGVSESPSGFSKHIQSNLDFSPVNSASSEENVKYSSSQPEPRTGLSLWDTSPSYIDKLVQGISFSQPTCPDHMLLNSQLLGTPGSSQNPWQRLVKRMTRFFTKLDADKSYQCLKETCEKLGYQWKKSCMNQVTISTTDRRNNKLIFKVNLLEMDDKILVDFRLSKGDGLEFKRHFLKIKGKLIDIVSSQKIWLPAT

In the case of `CCN(CC)CCOC(=O)c1ccc(N/C=C(/C#N)c2nc(-c3ccc4c(c3)OCO4)cs2)cc1`, the CC50 [1] is reported as > 40 µM (active), the IC50 (Bcl-2-related protein A1) is reported as 1.72 µM (active) and the IC50 [2] is reported as 6.35 µM (active). For the same molecule, the IC50 [3] was 5.07 µM (active), the IC50 [4] was 20.7 µM (active) and the AC50 (INS1) was 11 µM (active). The IC50 [5] was 6.43 µM (active), the IC50 [6] was 31.4 µM (active) and the IC50 [7] was > 100 µM (inactive). The IC50 (Prothrombin) was 56.1 µM (active), the IC50 [8] was > 66.6 µM (inactive) and the IC50 [9] was 2.13 µM (active). For the same molecule, the IC50 [10] was 120 µM (active).
With `CCOCCSc1nc2c(c(-c3cccs3)c1C#N)CC/C2=C/c1cccs1` the EC50 [11] was 17.8 µM (active), the EC50 (Lethal factor) was 16.7 µM (active) and the EC50 [12] was 8 µM (active). The EC50 [13] was 6.4 µM (active).
With `CC1=CN2CC(=O)NN=C2C=C1` the Ki [14] was > 100 µM (inactive), the Ki [15] was 50.1 µM (active) and the Ki [16] was 50.1 µM (active). For the same molecule, the Ki [17] was 100 µM (active), the Ki [18] was 63.1 µM (active) and the Ki (Aurora kinase A) was 31.6 µM (active). The Ki [19] was 79.4 µM (active), the Ki (LIM domain kinase 1) was 12.6 µM (active) and the Ki [20] was 79.4 µM (active). The Ki [21] was 50.1 µM (active), the Ki [22] was > 79.4 µM (inactive) and the Ki [23] was 12.6 µM (active). The Ki [24] was 100 µM (active), the Ki [25] was > 100 µM (inactive) and the Ki [26] was 50.1 µM (active). For the same molecule, the Ki [27] was 50.1 µM (active), the Ki [28] was 25.1 µM (active) and the Ki [29] was 79.4 µM (active). For the same molecule, the Ki (Focal adhesion kinase 1) was 79.4 µM (active), the Ki [30] was 31.6 µM (active) and the Ki (Aurora kinase B) was 79.4 µM (active). For the same molecule, the Ki [31] was 20 µM (active), the Ki [32] was 20 µM (active) and the Ki [33] was 79.4 µM (active). The Ki [34] was > 50.1 µM (inactive), the Ki [35] was 3.16 µM (active) and the Ki [36] was > 100 µM (inactive). The Ki [37] was 12.6 µM (active), the Ki [38] was 100 µM (active) and the Ki [39] was 63.1 µM (active). The Ki [40] was 31.6 µM (active).
